# Test results from PubChem BioAssay (NCI).
#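 GI50 is the concentration that inhibits growth by half. TGI denotes the concentration required for complete inhibition of growth.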
# Assays:
# Experiment in all cases: NCI tumour cell line growth inhibition, 384-well format
# [1] = test system: HT29 colon
# [2] = test system: MDA-MB-468 breast
# [3] = test system: NCI-H226 lung
# [4] = test system: SW-620 colon
# [5] = test system: SN12C renal
# [6] = test system: PC-3 prostate
# [7] = test system: OVCAR-3 ovarian
# [8] = test system: DU-145 prostate
# [9] = test system: SNB-19 CNS
# [10] = test system: HL-60(TB) leukemia
# [11] = test system: TK-10 renal
# [12] = test system: HCT-116 colon
# [13] = test system: CCRF-CEM leukemia
# [14] = test system: M14 melanoma
# [15] = test system: UACC-257 melanoma
# [16] = test system: UO-31 renal
# [17] = test system: MDA-MB-231 breast
# [18] = test system: NCI-H23 lung
# [19] = test system: MDA-MB-435 melanoma
# [20] = test system: SF-268 CNS
# [21] = test system: KM12 colon
# [22] = test system: RPMI-8226 leukemia
# [23] = test system: CAKI-1 renal
# [24] = test system: MALME-3M melanoma
# [25] = test system: OVCAR-5 ovarian
# [26] = test system: HCC-2998 colon
# [27] = test system: HOP-92 NSCLC
# [28] = test system: A498 renal
# [29] = test system: SK-OV-3 ovarian
# [30] = test system: OVCAR-8 ovarian
# [31] = test system: SK-MEL-28 melanoma
# [32] = test system: IGROV1 ovarian
# [33] = test system: MOLT-4 leukemia
# [34] = test system: A549 NSCLC
# [35] = test system: HCT-15 colon
# [36] = test system: HOP-62 NSCLC
# [37] = test system: SK-MEL-5 melanoma
# [38] = test system: LOX IMVI melanoma
# [39] = test system: BT-549 breast
# [40] = test system: SF-539 CNS
# [41] = test system: NCI/ADR-RES ovarian
# [42] = test system: NCI-H322M lung
# [43] = test system: SF-295 CNS
# [44] = test system: NCI-H522 lung
# [45] = test system: K-562 leukemia
# [46] = test system: ACHN renal
# [47] = test system: SR leukemia
# [48] = test system: NCI-H460 NSCLC
# [49] = test system: COLO 205 colon
# [50] = test system: EKVX NSCLC
# [51] = test system: HS 578T breast
# [52] = test system: U251 glioblastoma
# [53] = test system: MCF7 breast
# [54] = test system: RXF 393 renal
# [55] = test system: OVCAR-4 ovarian
# [56] = test system: 786-0 renal
# [57] = test system: T-47D breast
# [58] = test system: SNB-75 CNS
smiles,measurement,setting,value
Cn1cc(-c2ccc3nnc(C(F)(F)c4ccc5ncccc5c4)n3n2)cn1,GI50,[1],95.3 µM
same,TGI,[1],> 100 µM
same,GI50,[2],10.2 µM
same,TGI,[2],59.6 µM
same,GI50,[3],56.3 µM
same,TGI,[3],> 100 µM
same,GI50,[4],> 100 µM
same,TGI,[4],> 100 µM
same,GI50,[5],45.2 µM
same,TGI,[5],> 100 µM
same,GI50,[6],52.9 µM
same,TGI,[6],> 100 µM
same,GI50,[7],61.8 µM
same,TGI,[7],> 100 µM
same,GI50,[8],59.1 µM
same,TGI,[8],> 100 µM
same,GI50,[9],67.3 µM
same,TGI,[9],> 100 µM
same,GI50,[10],36.3 µM
same,TGI,[10],> 100 µM
same,GI50,[11],47.6 µM
same,TGI,[11],> 100 µM
same,GI50,[12],49.2 µM
same,TGI,[12],> 100 µM
same,GI50,[13],48.5 µM
same,TGI,[13],> 100 µM
same,GI50,[14],> 100 µM
same,TGI,[14],> 100 µM
same,GI50,[15],> 100 µM
same,TGI,[15],> 100 µM
same,GI50,[16],58.6 µM
same,TGI,[16],> 100 µM
same,GI50,[17],53.5 µM
same,TGI,[17],> 100 µM
same,GI50,[18],25 µM
same,TGI,[18],> 100 µM
same,GI50,[19],> 100 µM
same,TGI,[19],> 100 µM
same,GI50,[20],98.1 µM
same,TGI,[20],> 100 µM
same,GI50,[21],47.8 µM
same,TGI,[21],> 100 µM
same,GI50,[22],23.7 µM
same,TGI,[22],97.8 µM
same,GI50,[23],46.4 µM
same,TGI,[23],> 100 µM
same,GI50,[24],65 µM
same,TGI,[24],> 100 µM
same,GI50,[25],59.8 µM
same,TGI,[25],> 100 µM
same,GI50,[26],49.9 µM
same,TGI,[26],> 100 µM
same,GI50,[27],39.7 µM
same,TGI,[27],> 100 µM
same,GI50,[28],63.2 µM
same,TGI,[28],> 100 µM
same,GI50,[29],75.5 µM
same,TGI,[29],> 100 µM
same,GI50,[30],61.4 µM
same,TGI,[30],> 100 µM
same,GI50,[31],> 100 µM
same,TGI,[31],> 100 µM
same,GI50,[32],58.2 µM
same,TGI,[32],> 100 µM
same,GI50,[33],17.6 µM
same,TGI,[33],36.4 µM
same,GI50,[34],85.5 µM
same,TGI,[34],> 100 µM
same,GI50,[35],60.5 µM
same,TGI,[35],> 100 µM
same,GI50,[36],41.2 µM
same,TGI,[36],> 100 µM
same,GI50,[37],29.7 µM
same,TGI,[37],> 100 µM
same,GI50,[38],68.5 µM
same,TGI,[38],> 100 µM
same,GI50,[39],38.1 µM
same,TGI,[39],> 100 µM
same,GI50,[40],56.3 µM
same,TGI,[40],> 100 µM
same,GI50,[41],41.4 µM
same,TGI,[41],> 100 µM
same,GI50,[42],62.9 µM
same,TGI,[42],> 100 µM
same,GI50,[43],2.06 µM
same,TGI,[43],> 100 µM
same,GI50,[44],41.6 µM
same,TGI,[44],> 100 µM
same,GI50,[45],53.6 µM
same,TGI,[45],> 100 µM
same,GI50,[46],46.1 µM
same,TGI,[46],> 100 µM
same,GI50,[47],24.2 µM
same,TGI,[47],> 100 µM
same,GI50,[48],45.8 µM
same,TGI,[48],> 100 µM
same,GI50,[49],99 µM
same,TGI,[49],> 100 µM
same,GI50,[50],52.6 µM
same,TGI,[50],> 100 µM
same,GI50,[51],35.3 µM
same,TGI,[51],> 100 µM
same,GI50,[52],66.3 µM
same,TGI,[52],> 100 µM
same,GI50,[53],41.8 µM
same,TGI,[53],> 100 µM
same,GI50,[54],25.2 µM
same,TGI,[54],72.7 µM
same,GI50,[55],59.9 µM
same,TGI,[55],> 100 µM
same,GI50,[56],43.9 µM
same,TGI,[56],> 100 µM
same,GI50,[57],41.1 µM
same,TGI,[57],> 100 µM
same,GI50,[58],43.1 µM
same,TGI,[58],> 100 µM
